Among the data in PubChem BioAssay (NCI) are GI50 and TGI values, retold here.

Common to all, as to test: NCI-60 cell line screen, 48 h
Test [1] deals with BT-549 breast.
Test [2] deals with CAKI-1 renal.
Test [3] concerns HS 578T breast.
Test [4] concerns MDA-MB-435.
The subject of test [5] is RXF 393 renal.
Test [6] concerns SK-MEL-2 melanoma.
Test [7] deals with SK-OV-3 ovarian.
In test [8] the test system is SR leukemia.
Test [9] has as its system TK-10 renal.
In test [10] the test system is UACC-257 melanoma.

The structures appear in SMILES notation. Values joined by “and” are separate entries in the source; they are usually repeats but may differ in a detail not shown here. Identical values can stand only once.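 Each compound was tested at five concentrations against cells in 96-well plates for 48 hours. GI50 = concentration required for 50% inhibition of growth. The concentration for full growth arrest is given as TGI.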

For `O=C1NC(N/N=C\C(O)C(O)C(O)C(O)CO)=N/C1=C/c1ccccc1` (configuration not stated), the GI50 in test [1] is 80.6 µM and 16.3 µM and > 100 µM; in test [2], > 100 µM and 19.4 µM; in [3], > 100 µM and 24.6 µM; in [4], 85.7 µM and 15.7 µM and > 100 µM; in [5], > 100 µM and 21.7 µM; in [6], > 100 µM and 16.6 µM. The GI50 in [7] is > 100 µM and 20.2 µM; in [8] it was 51 µM and 16.3 µM and 99.4 µM; in test [9] it was > 100 µM and 19 µM; in test [10], > 100 µM and 19.9 µM. For the same compound, the TGI in test [1] is > 100 µM and 38.7 µM; in [2], > 100 µM and 38.1 µM; in test [3] it was > 100 µM and 73.4 µM; in test [4], > 100 µM and 34.9 µM; in test [5] it was > 100 µM and 44 µM; in test [6] it was > 100 µM and 32.7 µM. The TGI was > 100 µM and 37.8 µM in test [7]; > 100 µM and 51.2 µM in test [8]; > 100 µM and 48.3 µM in test [9]; > 100 µM and 45 µM in test [10].

Consider `O=S(=O)(O)O`, for which the TGI amounted to 2680 µM in [1]; 1870 µM in test [2]; 2240 µM in [3]; 634 µM in [4]; 1500 µM in test [5]; 1450 µM in test [6]. In addition, the TGI in test [7] was 2650 µM; in test [8] it was more than 1810 µM; in test [9], 2160 µM; in test [10], 1990 µM.

On to `O=[N+]([O-])c1cccc(/C=N/NC2=CS(=O)(=O)C=C2)c1`, for which the TGI in test [1], in test [2], in test [3], in test [4], in [5] and in test [6] was more than 100 µM in each case. The TGI in [7], in test [8], in test [9] and in test [10] was more than 100 µM throughout.

Turning to `COc1ccc(C(=O)Cn2c(C(=O)c3ccccc3)nc3ccccc32)cc1`, the GI50 in [1] is 5.9 µM; in test [2], more than 100 µM; in test [3] it was 2.81 µM; in test [4] it was 0.304 µM; in test [5], 2.38 µM; in [7], 6.58 µM. In addition, the results for the GI50 in [8], in [9] and in test [10] were 0.763 µM, 11 µM and more than 100 µM, respectively. Further, the TGI in test [1] is more than 100 µM; in test [2], more than 100 µM; in [3], more than 100 µM; in test [4] it was 1.87 µM; in [5], more than 22.2 µM; in test [6], more than 100 µM. Further, the TGI in test [7], in test [9] and in test [10] was more than 100 µM each time.

Turning to `O=c1c2c([nH]c3nccn13)CCC2`, the TGI in test [1], in test [2], in [3], in [4], in test [5] and in test [6] was more than 10 µM in each case. For the same compound, the TGI in test [7], in test [8], in test [9] and in test [10] was more than 10 µM throughout.

Take `C[C@H]1[C@H](C)N1CC(O)Cn1ccnc1[N+](=O)[O-]` (some centres not stated): the TGI in test [1], in [2], in [3], in test [4], in [5] and in test [6] was more than 100 µM throughout. Moreover, the TGI in test [7], in test [8], in test [9] and in test [10] was more than 100 µM each time.

In the case of `COc1ccc([C@H](CC(=O)O)N2CCN(CCCc3ccc4c(n3)NCCC4)C2=O)cn1`, the GI50 in test [1] is 0.153 µM; in [2], 2.71 µM; in test [3], 7.15 µM; in test [4], 0.0216 µM; in [5] it was 0.136 µM; in [6] it was 0.0331 µM. Moreover, the figures for the GI50 in [7], in [8] and in test [9] were more than 100 µM, more than 100 µM and 0.0167 µM, respectively. Moreover, the TGI was 0.296 µM in test [1]; more than 100 µM in [2]; more than 100 µM in [3]; 0.0602 µM in [4]; more than 100 µM in test [5]; 0.237 µM in test [6]. The TGI in test [7] was more than 100 µM; in test [8], more than 100 µM; in test [9] it was 0.0795 µM; in [10], more than 100 µM.

As to `CCCCC(SC(=S)N1CCCC1)C(=O)Nc1nc(CC(=O)OCC)cs1` (configuration not stated), the GI50 in test [1] is 59.7 µM; in test [2] it was more than 100 µM; in [3] it was more than 100 µM; in test [4], 35.4 µM; in [5], 41.7 µM; in test [6], 36.1 µM. The GI50 is 97.4 µM in test [7], 4.83 µM in test [8], more than 100 µM in test [9] and 47.9 µM in test [10]. For the same compound, the TGI in [1], in [2], in test [3], in [4], in test [5] and in [6] was more than 100 µM in each case. In addition, the TGI in [7], in [8], in [9] and in test [10] was more than 100 µM throughout.

`CCCCCCCCCCCC1=NC(C)(C)CN1C(C)(C)CO`: the GI50 is 9.89 µM in test [1]; 1.73 µM in test [2]; 1.45 µM in test [3]; 1.73 µM in test [4]; 2.26 µM in test [5]; 2.12 µM in [6]. For the same compound, the GI50 in [7] was 3.8 µM; in test [8], 3.07 µM; in test [9], 1.94 µM; in test [10] it was 1.65 µM. Also, the TGI came to 22 µM in test [1]; 4.37 µM in test [2]; 3.48 µM in test [3]; 3.5 µM in test [4]; 4.48 µM in [5]; 3.88 µM in [6]. Moreover, the TGI in test [7] was determined as 12.4 µM; in [8], 12.5 µM; in [9], 3.61 µM; in test [10] it was 3.28 µM.

For `CN1C(=O)c2ccc3ccccc3c2C1=O`, the TGI is more than 100 µM in test [1]; more than 100 µM in test [2]; more than 100 µM in [3]; more than 100 µM in [4]; 96.6 µM in test [5]; more than 100 µM in test [6]. For the same compound, the TGI in [7], in [8], in [9] and in [10] was more than 100 µM in each case.
